Read-outs that look alike come from different tables or passages of the source.
Tests used:
[1] = Plasma pharmacokinetics in rats after oral administration of Yizhi tablets, EPT or EPG (HPLC-ESI/MS); format: in vivo, Sprague-Dawley rats; conditions: for AUC(0-inf) / CL/F / Cmax / Tmax / MRT last / MRT inf / AUC(0-t): male, Sprague-Dawley; for MRT last: read-out: MRT(0–t) (converted); for MRT inf: read-out: MRT(0–∞) (converted)
Method: Male Sprague-Dawley rats (weight: 220 ± 30 g) were purchased from the animal laboratory centre at Tsinghua University (Beijing, China). All animals were maintained in an environmentally controlled room under controlled temperature (22–25°C) and relative humidity (50 ± 5%) on 12 h light/dark cycles (lights on from 08:00 to 20:00). Experiments were conducted in a specific pathogen-free (SPF) grade laboratory, according to the guidelines of the Guiding Principles for the Care and Use of Laboratory Animals approved by the Committee for Animal Experiments at Tsinghua University (Beijing, China). The animals were acclimated for one week before use. Standard diet and water were provided to the rats ad libitum.
Yizhi tablets were prepared by mixing Yizhi tablet powder (9 g) in 10 mL 5% CMC-Na with a magnetic stirring apparatus. The concentration of effective parts of tianma (EPT, total saponins from Gastrodiae) and gouteng (EPG, rhynchophylla alkaloids) was equivalent to that in a Yizhi tablet. The three different suspensions were shacked uniformly before administration.
The rats were randomly assigned to one of three groups (1–3), representing the groups administered with EPT, EPG, and Yizhi, respectively. Each group contained six rats. The rats fasted overnight with free access to water before dose administration. After a single dose was administered by oral gavage, blood samples (0.5 mL) were collected in heparinized tubes via the orbital vein at 0 min, 10 min, 20 min, 30 min, 45 min, 1 h, 2 h, 4 h, 6 h, 8 h, and 12 h. All blood samples were centrifuged at 3000 rpm for 15 min to collect plasma. The plasma samples obtained were stored at −20°C until analysis. Along with the plasma samples, quality control (QC) samples were distributed among calibrators and unknown samples in the analytical run. All of the blank samples used as controls were prepared by the same method as drug-containing samples.
To 200 μL of thawed plasma, 25 μL aqueous ammonia and 800 μL ether were added. The supernatant was separated and dried under nitrogen gas at 37°C after vortexing for 1 min and centrifuging at 10,000 g for 15 min at 4°C. The residues were reconstituted in 50 μL of methanol and centrifuged at 15,000 g for 15 min. A 20 μL aliquot of the supernatant was injected into the HPLC-MS system for analysis of RIN. To the residue, 800 μL methanol was added. The supernatant was separated and evaporated to dryness under nitrogen at room temperature after being vortexed for 3 min and centrifuged at 10,000 g for 15 min. The residue was reconstituted in 50 μL of the initial mobile phase and centrifuged at 15,000 g for 15 min. 20 μL aliquot of the supernatant was injected into the HPLC-MS system for analysis of GAS and HBA.
Yizhi tablets, EPT, and EPG were separately suspended in 0.5% carboxymethylcellulose solution and administered orally to six conscious rats at doses of 9 g/kg for Yizhi tablets, 5.4 g/kg for EPT, and 3.6 g/kg for EPG, respectively. Blood samples were collected from the retroorbital plexus of rats under light anaesthesia with ether. Blood samples were collected in microfuge tubes containing heparin as an anticoagulant at 0 min, 10 min, 20 min, 30 min, 45 min, 1 h, 2 h, 4 h, 6 h, 8 h, and 12 h after treatment. Plasma was harvested by centrifuging blood samples at 3500 ×g for 10 min and stored at −80°C until analysis. The concentrations of GAS, HBA, and RIN in plasma were determined as described above. QC samples were distributed among calibrators and samples in the analytical run to adjust the error.
The pharmacokinetic parameters, such as area under the plasma concentration-time curve (AUC), maximum plasma concentration (C max), corresponding time (T max) and half-life (T 1/2), plasma clearance (CL), mean residence time (MRT), and initial plasma concentration (C 0) for orally administered dose, were performed on each individual set using the software of Kinetica (Version 5.0, Thermo Electron Corp., MA, USA) by the noncompartmental model. […]

[2] = Stability of GAS, HBA and RIN spiked into rat plasma (HPLC-MS); format: physicochemical; conditions: for Stability (RE, %) 20°C/24 h / Stability (RE, %) Freeze-thaw (3 cycles) / Stability (RE, %) −80°C/20 days: rat plasma, n = 3; for stability spiked into rat plasma: room temperature (22–25°C) for 24 h, −80°C for 20 days, three freeze/thaw cycles
Method: The stability experiments on GAS, HBA, and RIN were performed at three concentrations of the QC samples, using three replicates at each concentration (10, 50, and 100 μg/mL for GAS and HBA and 1, 5, and 10 μg/mL for RIN). Short-term stability was determined after exposure of the spiked samples at room temperature for 24 h. The freeze/thaw stability was evaluated after three complete freeze/thaw cycles (−80°C) on consecutive days. Long-term stability was assessed after storage of the standard spiked plasma samples at −80°C for 20 days. Postextraction stability was determined after the extracted samples had been stored in the autosampler pending analysis at the temperature of the autoinjector (4°C) for 24 h. The analytes were considered stable in the biological matrix when 85–115% (RE) of the initial concentration was found.

[3] = in vivo, rat plasma, oral EPT 5.4 g/kg, n = 6
[4] = in vivo, rat plasma, oral Yizhi tablets 9 g/kg, n = 6
[5] = rat, in vivo, po, 9 g/kg, oral Yizhi tablets 9 g/kg, n = 6
[6] = rat, in vivo, po, 9 g/kg, text value matching the Yizhi tablet group (oral 9 g/kg)
[7] = rat plasma, oral EPT 5.4 g/kg, n = 6
[8] = rat plasma, oral Yizhi tablets 9 g/kg, n = 6
[9] = in vivo, rat plasma, oral EPG 3.6 g/kg, n = 6

| SMILES | AUC(0-inf) [1, 4] [ng·h/mL] | CL/F [1, 4] [mL/min/kg] | Cmax [1, 4] [ng/mL] | Tmax [1, 4] [h] | MRT last [1, 4] [h] | MRT inf [1, 4] [h] | AUC(0-t) [1, 5] [ng·h/mL] | AUC(0-t) [1, 6] [ng·h/mL] | Stability (RE, %) 20°C/24 h ([2]; 10 μg/mL) [%] | Stability (RE, %) Freeze-thaw (3 cycles) ([2]; 10 μg/mL) [%] | Stability (RE, %) −80°C/20 days ([2]; 10 μg/mL) [%] | Stability (RE, %) 20°C/24 h ([2]; 50 μg/mL) [%] | Stability (RE, %) Freeze-thaw (3 cycles) ([2]; 50 μg/mL) [%] | Stability (RE, %) −80°C/20 days ([2]; 50 μg/mL) [%] | Stability (RE, %) 20°C/24 h ([2]; 100 μg/mL) [%] | Stability (RE, %) Freeze-thaw (3 cycles) ([2]; 100 μg/mL) [%] | Stability (RE, %) −80°C/20 days ([2]; 100 μg/mL) [%] | stability spiked into rat plasma [2] | also measured |
| --- | --- | --- | --- | --- | --- | --- | --- | --- | --- | --- | --- | --- | --- | --- | --- | --- | --- | --- | --- |
| OCc1ccc(O[C@@H]2O[C@H](CO)[C@@H](O)[C@H](O)[C@H]2O)cc1 [GAS, Gastrodin] | 249000 | 3.5 ± 0.1 | 141000 ± 19000 | 0.75 | 2.69 | 3.29 | 230000 | 230000 | 9.35 | 5.36 | 4.38 | 3.17 | 4.12 | 6.95 | 3.93 | 8.26 | 8.01 | stable | AUC(0-inf) [1, 3]: 367000 ng·h/mL; CL/F [1, 3]: 2.32 ± 0.25 mL/min/kg; Cmax [1, 3]: 188000 ± 19300 ng/mL; Tmax [1, 3]: 0.361 h; MRT last [1, 3]: 2.03 h; MRT inf [1, 3]: 2.21 h; AUC(0-t) ([1]; rat, in vivo, po, 5.4 g/kg, oral EPT 5.4 g/kg, n = 6): 359000 ng·h/mL; MRT change when coadministered with Yizhi tablet ([1]; rat plasma, Yizhi tablet group versus EPT group): 1.32 fold; time of first of two successive maximum plasma concentrations ([1]; rat plasma, oral Yizhi tablets): 45 min; time of second of two successive maximum plasma concentrations ([1]; rat plasma, oral Yizhi tablets): 120 min |
| OCc1ccc(O)cc1 [HBA, p-hydroxybenzyl alcohol] | – | – | – | – | – | – | – | – | 4.69 | 2.65 | 4.58 | 2.65 | 4.65 | 5.63 | 3.17 | 7.03 | 7.15 | stable | AUC(0-inf) [1, 7]: 34700 ng·h/mL; AUC(0-t) [1, 7]: 27600 ng·h/mL; Cmax [1, 7]: 9120 ± 610 ng/mL; Tmax [1, 7]: 1 h; MRT last [1, 7]: 2.57 h; MRT inf [1, 7]: 3.98 h; AUC(0-inf) [1, 8]: 52200 ng·h/mL; AUC(0-t) [1, 8]: 37800 ng·h/mL; Cmax [1, 8]: 10400 ± 3020 ng/mL; Tmax [1, 8]: 0.917 h; MRT last [1, 8]: 4.44 h; MRT inf [1, 8]: 9.22 h; bioavailability in Yizhi tablet group compared with EPT alone ([1]; rat plasma, increased AUC, longer MRT (P < 0.01), higher C max): higher bioavailability |
| CC[C@H]1CN2CC[C@]3(C(=O)Nc4ccccc43)[C@@H]2C[C@@H]1/C(=C\OC)C(=O)OC [RIN, rhynchophylline] | 32000 | 2.18 ± 0.46 | 6500 ± 1440 | 4 | 3.72 | 4.59 | 29700 | 29700 | 9.35 | 4.56 | 5.49 | – | – | – | – | – | – | stable | AUC(0-inf) [1, 9]: 43400 ng·h/mL; CL/F [1, 9]: 1.55 ± 0.13 mL/min/kg; Cmax [1, 9]: 6170 ± 380 ng/mL; Tmax [1, 9]: 3.67 h; MRT last [1, 9]: 4.78 h; MRT inf [1, 9]: 5.59 h; AUC(0-t) ([1]; rat, in vivo, po, 3.6 g/kg, oral EPG 3.6 g/kg): 40200 ng·h/mL; AUC(0-t) ([1]; rat, in vivo, po, 3.6 g/kg, oral EPG 3.6 g/kg, n = 6): 40200 ng·h/mL; delay of T max ([1]; rat plasma, Yizhi tablets versus EPG alone): 0.333 h; Stability (RE, %) 20°C/24 h ([2]; 1 μg/mL): 8.63%; Stability (RE, %) Freeze-thaw (3 cycles) ([2]; 1 μg/mL): 7.18%; Stability (RE, %) −80°C/20 days ([2]; 1 μg/mL): 6.88%; Stability (RE, %) 20°C/24 h ([2]; 5 μg/mL): 7.65%; Stability (RE, %) Freeze-thaw (3 cycles) ([2]; 5 μg/mL): 8.08%; Stability (RE, %) −80°C/20 days ([2]; 5 μg/mL): 8.04% |

From PMC4281461, “Pharmacokinetic Comparative Study of Gastrodin and Rhynchophylline after Oral Administration of Different Prescriptions of Yizhi Tablets in Rats by an HPLC-ESI/MS Method” (Evidence-based Complementary and Alternative Medicine : eCAM, 2014)
